Calls of active or inactive are those of the source.
Key:
[1] = target: Nuclear receptor subfamily 5 group A member 2 (Homo sapiens, UniProt O00482); type: functional, cell-based;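 note: HEK293T cells transfected with LRH-1 and a StAR promoter luciferase reporter; potency for inhibitors that lower LRH-1 driven reporter light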
[2] = StAR promoter reporter inhibition counter-screen, dose response, counter-screen for LRH-1 inverse agonist project, cell-based, luminescence, luciferase reporter (AID 651969); type: functional
Steroidogenic factor 1 = Steroidogenic factor 1 (Homo sapiens, UniProt Q13285); assay: Counterscreen for inverse agonists of the liver receptor homolog-1 (LRH-1; NR5A2): Luminescence-based cell-based high throughput dose response assay to identify inverse agonists of the Steroidogenic Factor 1 Nuclear Receptor (SF1; NR5A1).; type: functional
Chain of Steroidogenic factor 1 (Q13285 whole entry): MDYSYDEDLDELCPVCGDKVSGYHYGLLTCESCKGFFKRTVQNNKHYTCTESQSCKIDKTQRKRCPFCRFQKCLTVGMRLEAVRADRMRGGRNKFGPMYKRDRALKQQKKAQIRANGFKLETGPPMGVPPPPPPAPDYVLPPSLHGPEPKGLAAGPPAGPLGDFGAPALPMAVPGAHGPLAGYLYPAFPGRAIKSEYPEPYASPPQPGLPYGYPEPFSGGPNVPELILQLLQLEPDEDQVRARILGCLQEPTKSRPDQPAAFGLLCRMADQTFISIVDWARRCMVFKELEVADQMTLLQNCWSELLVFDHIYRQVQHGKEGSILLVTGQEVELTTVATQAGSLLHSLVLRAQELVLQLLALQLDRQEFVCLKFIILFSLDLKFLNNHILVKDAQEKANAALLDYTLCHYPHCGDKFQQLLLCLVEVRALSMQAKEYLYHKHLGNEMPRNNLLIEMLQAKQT

Melanocortin receptor 4 = Melanocortin receptor 4 (Homo sapiens, UniProt P32245); type: functional, cell-based;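 note: Cell-based assay with luminescence read-out, confirmatory dose-response testing for agonist activity of biased ligands at MC4R; human U2OS cells with tagged receptor and beta-arrestin; potency of agonists that increase receptor coupling to beta-arrestin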
Chain of Melanocortin receptor 4 (P32245 whole entry): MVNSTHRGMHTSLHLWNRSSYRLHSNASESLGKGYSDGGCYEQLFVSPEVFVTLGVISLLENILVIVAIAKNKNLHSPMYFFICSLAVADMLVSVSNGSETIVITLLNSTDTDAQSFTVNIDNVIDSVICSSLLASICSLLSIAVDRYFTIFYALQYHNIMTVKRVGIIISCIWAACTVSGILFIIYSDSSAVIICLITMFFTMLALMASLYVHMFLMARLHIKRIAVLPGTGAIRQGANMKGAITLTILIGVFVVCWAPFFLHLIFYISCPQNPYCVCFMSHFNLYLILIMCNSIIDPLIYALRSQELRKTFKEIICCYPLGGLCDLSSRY

[3] = Luminescence Cell-Based Dose Retest to Confirm Inhibitors of Cancer Stem Cells. [Related pubchem assays (depositor defined):AID2717, AID2721]; type: functional; details: Homo sapiens
[4] = target: T1, DNA repair protein RAD52 homolog (Homo sapiens, UniProt P43351); type: functional, biochemical
T1 sequence (P43351 whole entry): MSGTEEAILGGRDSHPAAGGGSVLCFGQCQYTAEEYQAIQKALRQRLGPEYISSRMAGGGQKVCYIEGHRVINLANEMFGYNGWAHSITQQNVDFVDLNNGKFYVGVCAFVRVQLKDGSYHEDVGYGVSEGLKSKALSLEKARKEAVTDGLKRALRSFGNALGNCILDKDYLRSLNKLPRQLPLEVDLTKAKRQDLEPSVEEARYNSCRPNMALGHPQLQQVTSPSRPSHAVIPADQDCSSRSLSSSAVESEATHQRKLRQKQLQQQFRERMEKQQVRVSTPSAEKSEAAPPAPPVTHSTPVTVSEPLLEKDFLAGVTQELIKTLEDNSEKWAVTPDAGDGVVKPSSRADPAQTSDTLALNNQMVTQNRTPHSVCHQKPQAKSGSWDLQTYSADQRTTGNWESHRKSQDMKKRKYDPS

[5] = inhibitors of intracellular T. cruzi replication, confirmation, NIH3T3 host cells, beta-gal luminescence (AID 2044); type: functional, cell-based;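 note: intracellular parasites grown in NIH/3T3 mouse fibroblasts as host cells; luminescent beta-galactosidase reporter signal from transgenic T. cruzi replicating inside host cells; inhibitors lower the luminescence signal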
[6] = cytotoxicity toward NIH3T3 fibroblasts, dose response, counter-screen, cell-based, ATP luminescence, mouse fibroblasts (AID 2010); type: functional;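 note: cells exposed to compound for about 90 hours before reading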
[7] = target: Photoreceptor-specific nuclear receptor (Homo sapiens, UniProt Q9Y5X4); type: functional, cell-based;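 note: CHO-S cells with Gal4-NCOR and VP16-NR2E3 two-hybrid luciferase reporter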
Chain of Photoreceptor-specific nuclear receptor (Q9Y5X4 whole entry, the tested form may be a part): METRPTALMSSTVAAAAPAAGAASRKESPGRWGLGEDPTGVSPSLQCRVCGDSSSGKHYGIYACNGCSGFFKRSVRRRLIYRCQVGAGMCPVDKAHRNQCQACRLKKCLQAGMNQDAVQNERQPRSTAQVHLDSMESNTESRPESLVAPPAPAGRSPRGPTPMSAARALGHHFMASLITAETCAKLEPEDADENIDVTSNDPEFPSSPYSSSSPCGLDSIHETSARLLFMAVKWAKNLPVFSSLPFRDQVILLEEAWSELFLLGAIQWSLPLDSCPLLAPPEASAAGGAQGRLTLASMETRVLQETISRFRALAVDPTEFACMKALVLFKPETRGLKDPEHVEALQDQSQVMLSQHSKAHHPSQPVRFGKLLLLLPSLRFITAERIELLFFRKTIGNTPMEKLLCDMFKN

[8] = target: T2, Apoptotic protease-activating factor 1 (Homo sapiens, UniProt O14727); type: functional
T2 sequence (O14727 whole entry): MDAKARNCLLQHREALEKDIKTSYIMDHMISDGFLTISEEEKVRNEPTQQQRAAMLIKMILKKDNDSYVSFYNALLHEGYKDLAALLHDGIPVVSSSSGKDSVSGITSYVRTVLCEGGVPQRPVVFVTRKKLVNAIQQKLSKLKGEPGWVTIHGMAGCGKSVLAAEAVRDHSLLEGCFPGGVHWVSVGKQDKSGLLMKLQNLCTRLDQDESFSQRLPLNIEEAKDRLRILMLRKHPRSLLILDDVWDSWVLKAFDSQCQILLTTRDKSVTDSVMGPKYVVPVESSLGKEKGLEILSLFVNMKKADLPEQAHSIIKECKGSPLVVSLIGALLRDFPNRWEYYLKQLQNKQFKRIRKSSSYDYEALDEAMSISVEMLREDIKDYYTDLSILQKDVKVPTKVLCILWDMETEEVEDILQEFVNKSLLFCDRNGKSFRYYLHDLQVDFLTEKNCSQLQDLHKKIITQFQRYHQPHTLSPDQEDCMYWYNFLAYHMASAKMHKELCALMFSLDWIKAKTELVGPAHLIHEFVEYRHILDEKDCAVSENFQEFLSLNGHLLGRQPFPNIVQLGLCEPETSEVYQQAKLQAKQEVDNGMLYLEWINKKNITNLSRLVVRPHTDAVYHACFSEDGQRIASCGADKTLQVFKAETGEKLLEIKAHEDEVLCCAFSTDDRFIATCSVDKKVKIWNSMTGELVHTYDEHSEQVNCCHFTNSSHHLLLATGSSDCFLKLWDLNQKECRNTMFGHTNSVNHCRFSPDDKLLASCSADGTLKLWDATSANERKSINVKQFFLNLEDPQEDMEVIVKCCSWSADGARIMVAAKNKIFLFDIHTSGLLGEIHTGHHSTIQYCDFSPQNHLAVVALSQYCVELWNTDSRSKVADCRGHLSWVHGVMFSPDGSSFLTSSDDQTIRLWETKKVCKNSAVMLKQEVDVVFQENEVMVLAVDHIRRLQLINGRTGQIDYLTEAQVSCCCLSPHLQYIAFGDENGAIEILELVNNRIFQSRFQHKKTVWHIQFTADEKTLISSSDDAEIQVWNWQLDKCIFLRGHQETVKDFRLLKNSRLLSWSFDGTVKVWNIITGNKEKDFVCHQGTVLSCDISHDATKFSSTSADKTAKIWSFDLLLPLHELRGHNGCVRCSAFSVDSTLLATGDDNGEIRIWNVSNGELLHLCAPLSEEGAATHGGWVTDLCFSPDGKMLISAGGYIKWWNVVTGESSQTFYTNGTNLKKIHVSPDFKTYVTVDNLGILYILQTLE

[9] = inhibitors of firefly luciferase expression or activity, dose response, H4 neuroglioma cells, luminescence (AID 1990); type: functional, cell-based
[10] = inhibitors of SNCA 5'UTR-driven reporter translation, confirmation, H4 neuroglioma cells, luminescence (AID 1988); type: functional, cell-based
[11] = target: Arf-GAP with SH3 domain, ANK repeat and PH domain-containing protein 1 (Homo sapiens, UniProt Q9ULH1); type: functional;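 note: biochemical fluorescence polarization dose–response screen measuring inhibition of ASAP1; ASAP1 GAP domain stimulating GTP hydrolysis by truncated human ARF1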
Chain of Arf-GAP with SH3 domain, ANK repeat and PH domain-containing protein 1 (Q9ULH1 whole entry, the tested form may be a part): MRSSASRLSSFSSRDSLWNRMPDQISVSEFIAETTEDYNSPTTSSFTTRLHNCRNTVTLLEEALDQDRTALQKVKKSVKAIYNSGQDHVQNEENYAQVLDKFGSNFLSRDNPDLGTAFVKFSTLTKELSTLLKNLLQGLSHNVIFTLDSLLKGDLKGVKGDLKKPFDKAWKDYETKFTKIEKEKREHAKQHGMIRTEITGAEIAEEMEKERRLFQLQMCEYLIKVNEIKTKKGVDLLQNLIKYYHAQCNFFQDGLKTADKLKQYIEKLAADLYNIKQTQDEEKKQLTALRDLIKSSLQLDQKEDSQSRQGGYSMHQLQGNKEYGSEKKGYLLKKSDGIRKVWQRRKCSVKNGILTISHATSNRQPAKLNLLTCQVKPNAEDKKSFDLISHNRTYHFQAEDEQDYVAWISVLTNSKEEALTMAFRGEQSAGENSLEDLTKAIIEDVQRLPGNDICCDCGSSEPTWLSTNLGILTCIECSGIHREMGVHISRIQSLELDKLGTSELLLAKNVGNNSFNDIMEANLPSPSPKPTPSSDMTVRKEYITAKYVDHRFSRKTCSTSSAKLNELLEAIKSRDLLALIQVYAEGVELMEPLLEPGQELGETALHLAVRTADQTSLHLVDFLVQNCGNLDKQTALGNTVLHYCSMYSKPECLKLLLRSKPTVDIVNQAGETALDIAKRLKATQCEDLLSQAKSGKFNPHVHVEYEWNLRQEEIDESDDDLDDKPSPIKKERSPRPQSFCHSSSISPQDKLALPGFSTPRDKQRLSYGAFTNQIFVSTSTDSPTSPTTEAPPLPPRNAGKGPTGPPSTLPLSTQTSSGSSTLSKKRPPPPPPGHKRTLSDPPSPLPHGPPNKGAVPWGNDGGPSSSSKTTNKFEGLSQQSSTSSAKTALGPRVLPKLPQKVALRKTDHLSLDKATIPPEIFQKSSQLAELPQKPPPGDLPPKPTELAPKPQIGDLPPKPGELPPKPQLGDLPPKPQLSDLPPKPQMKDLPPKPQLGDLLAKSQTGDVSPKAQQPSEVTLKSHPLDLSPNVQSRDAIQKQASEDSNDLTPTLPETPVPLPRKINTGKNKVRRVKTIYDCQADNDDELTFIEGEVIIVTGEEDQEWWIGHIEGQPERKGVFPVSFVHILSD

[12] = Luminescence Cell-Based Dose Response HTS to Identify Inhibitors of 5'UTR Stem-Loop Driven Prion Protein mRNA Translation in H4 Neuroglioblastoma Cells. [Related pubchem assays: 1827 (Project Summary), 1813 (Primary HTS)]; type: functional
[13] = ARNT/TACC3 interaction disruptors, potency, confirmation, biochemical, AlphaScreen, cherry-picked samples (AID 651703); type: functional, Homo sapiens;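 note: His-tagged ARNT PAS-B domain paired with GST-TACC3 E629A dimer coactivator fragment; potency of inhibitors that break up the complex and lower AlphaScreen signal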
[14] = target: DNA repair and recombination protein RAD54-like (Homo sapiens, UniProt Q92698); assay: inhibitors of human RAD54 branch migration, confirmation, biochemical, fluorescence, cherry-picked samples, dose series (AID 651657); type: functional
Chain of DNA repair and recombination protein RAD54-like (Q92698 whole entry): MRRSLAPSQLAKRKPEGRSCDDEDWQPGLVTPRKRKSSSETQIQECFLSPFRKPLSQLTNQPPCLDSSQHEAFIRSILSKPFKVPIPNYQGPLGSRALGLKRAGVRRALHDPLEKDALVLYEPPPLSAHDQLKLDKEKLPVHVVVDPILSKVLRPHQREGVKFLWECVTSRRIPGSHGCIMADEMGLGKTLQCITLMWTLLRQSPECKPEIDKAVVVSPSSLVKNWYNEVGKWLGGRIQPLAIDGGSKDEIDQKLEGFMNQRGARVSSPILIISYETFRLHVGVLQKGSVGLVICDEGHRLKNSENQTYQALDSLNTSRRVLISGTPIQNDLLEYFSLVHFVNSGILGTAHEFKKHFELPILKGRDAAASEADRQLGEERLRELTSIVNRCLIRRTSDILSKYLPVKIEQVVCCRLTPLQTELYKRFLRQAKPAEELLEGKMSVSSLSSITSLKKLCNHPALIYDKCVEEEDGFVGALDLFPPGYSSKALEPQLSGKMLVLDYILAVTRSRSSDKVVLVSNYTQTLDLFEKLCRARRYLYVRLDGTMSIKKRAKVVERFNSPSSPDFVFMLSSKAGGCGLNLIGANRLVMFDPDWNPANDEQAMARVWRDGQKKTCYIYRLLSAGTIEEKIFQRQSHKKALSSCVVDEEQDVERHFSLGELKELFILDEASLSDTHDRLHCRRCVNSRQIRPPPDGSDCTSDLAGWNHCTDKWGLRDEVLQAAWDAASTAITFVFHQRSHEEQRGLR

H9c2 = assay: cells; type: functional, cell-based; details: Rattus norvegicus, H9c2, Myocardium;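 note: confirmatory concentration-response retest of ultra-high-throughput screening hits for modulation of myocardial damage; cell death induced by hydrogen peroxide oxidative stress; compound pretreatment for 60 min then peroxide exposure for 2 h; potency is for protecting the cells against peroxide damage rather than for killing them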
Vero = assay: Vero cell toxicity, dose response, cytotoxicity control, plate reader, cherry-pick samples (AID 687020); type: functional, cell-based; details: Chlorocebus sabaeus
Paired box protein Pax-8 = Paired box protein Pax-8 (Homo sapiens, UniProt Q06710); assay: inhibitors of PAX8-driven TPO luciferase reporter, dose response, RMG-I cells, cherry-pick (AID 687027); type: functional, cell-based;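 note: luciferase reporter driven by Pax8 target thyroperoxidase promoter measured by SteadyGlo luminescence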
Chain of Paired box protein Pax-8 (Q06710 whole entry, the tested form may be a part): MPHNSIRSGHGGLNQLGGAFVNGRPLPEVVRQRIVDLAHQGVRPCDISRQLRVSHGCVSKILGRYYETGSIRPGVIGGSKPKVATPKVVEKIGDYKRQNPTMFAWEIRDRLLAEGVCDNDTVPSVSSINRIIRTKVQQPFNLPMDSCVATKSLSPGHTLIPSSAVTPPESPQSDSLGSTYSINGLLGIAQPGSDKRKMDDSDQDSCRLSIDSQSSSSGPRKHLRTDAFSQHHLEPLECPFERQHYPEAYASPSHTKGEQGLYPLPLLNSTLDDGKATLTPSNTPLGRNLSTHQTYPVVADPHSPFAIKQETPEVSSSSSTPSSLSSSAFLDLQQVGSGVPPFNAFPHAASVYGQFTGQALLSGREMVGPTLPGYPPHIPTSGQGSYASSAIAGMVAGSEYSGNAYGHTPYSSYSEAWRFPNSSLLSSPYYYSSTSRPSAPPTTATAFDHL

[15] = Fluorescence-based cell-based high throughput dose response assay for inhibitors of the interaction of nucleotide-binding oligomerization domain containing 2 (NOD2) and the receptor-interacting serine-threonine kinase 2 (RIPK2).; type: functional; details: Homo sapiens
HEK293 = assay: inhibitors of LMP1-driven NF-kB reporter, dose response, cell-based, HEK293, luciferase, cherry-pick (AID 588343); type: functional; details: Homo sapiens
[16] = inhibitors of PGC1a acetylation in cells, dose response, cell-based, cherry-picked samples (AID 720514); type: functional;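 note: potency may reflect raised or lowered acetylation signal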
[17] = target: Hepatocyte nuclear factor 4-alpha (Homo sapiens, UniProt P41235); type: functional, cell-based;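 note: biochemical luminescence-based dose-response counterscreen measuring inhibition of HNF4 dimerization, run alongside a screen for blockers of ABHD5–perilipin-5 interaction; split luciferase complementation of HNF4 fusion proteins in cell lysate measuring dimerization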
Chain of Hepatocyte nuclear factor 4-alpha (P41235 whole entry, the tested form may be a part): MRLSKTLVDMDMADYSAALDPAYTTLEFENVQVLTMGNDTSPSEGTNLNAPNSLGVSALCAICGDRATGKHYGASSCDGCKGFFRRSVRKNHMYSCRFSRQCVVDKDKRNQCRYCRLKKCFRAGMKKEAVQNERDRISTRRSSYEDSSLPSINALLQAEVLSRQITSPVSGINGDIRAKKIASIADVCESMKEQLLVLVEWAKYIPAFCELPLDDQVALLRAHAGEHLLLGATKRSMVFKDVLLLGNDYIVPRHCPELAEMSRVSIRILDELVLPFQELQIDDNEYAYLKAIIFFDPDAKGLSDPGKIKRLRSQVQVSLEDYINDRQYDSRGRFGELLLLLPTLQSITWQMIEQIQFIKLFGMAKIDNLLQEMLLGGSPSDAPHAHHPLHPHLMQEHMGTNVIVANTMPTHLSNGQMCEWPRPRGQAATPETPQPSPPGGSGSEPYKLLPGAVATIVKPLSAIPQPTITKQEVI

CHO = assay: cytotoxicity in TLR9-MyD88 CHO cells, dose response, cytotoxicity control for TLR9-MyD88 binding inhibitor project, cell-based, luminescence (AID 588339); type: functional, hamster; details: Cricetulus griseus;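 note: CHO cells stably coexpressing TLR9 and MyD88 fusions from primary screen; compound exposure lasted 48 hours before viability readout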
Beta Lactamase = Beta Lactamase (Pseudomonas aeruginosa, UniProt Q932Y6); assay: beta-lactamase reporter inhibitor potency, dose response, artefact control for TLR9-MyD88 binding inhibitor project, BLA reporter cells, FRET fluorescence (AID 588341); type: cell-based;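 note: cell based assay in CHO-K1 cells stably expressing beta-lactamase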
Chain of Beta Lactamase (Q932Y6 whole entry): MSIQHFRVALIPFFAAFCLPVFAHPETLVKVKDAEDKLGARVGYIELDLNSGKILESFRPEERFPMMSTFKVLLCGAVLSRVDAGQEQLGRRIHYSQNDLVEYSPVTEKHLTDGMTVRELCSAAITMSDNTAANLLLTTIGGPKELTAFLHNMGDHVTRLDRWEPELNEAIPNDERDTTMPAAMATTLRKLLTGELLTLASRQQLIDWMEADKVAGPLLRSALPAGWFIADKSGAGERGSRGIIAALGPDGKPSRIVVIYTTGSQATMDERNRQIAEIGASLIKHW

[18] = intracellular Trypanosoma cruzi inhibitors in host cells – cell-based, plate reader, cherry-pick samples, set 3, dose response (AID 651818); type: functional;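 note: compounds incubated with infected cells for about four days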
[19] = miR-122 activators in hepatoma reporter cells, dose response, cell-based, Huh7 psiCHECK-miR122, Renilla luciferase, cherry-picked (AID 651956); type: functional;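 note: huh7 hepatoma cells stably carrying a psiCHECK-2 miR-122 sensor plasmid; renilla luciferase signal reporting endogenous miR-122 activity after 48 h compound exposure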
[20] = target: T3, Methionyl-tRNA synthetase, putative (Trypanosoma brucei brucei, UniProt Q38C91); type: functional, Trypanosoma brucei brucei strain 927/4 GUTat10.1
T3 sequence (Q38C91 whole entry): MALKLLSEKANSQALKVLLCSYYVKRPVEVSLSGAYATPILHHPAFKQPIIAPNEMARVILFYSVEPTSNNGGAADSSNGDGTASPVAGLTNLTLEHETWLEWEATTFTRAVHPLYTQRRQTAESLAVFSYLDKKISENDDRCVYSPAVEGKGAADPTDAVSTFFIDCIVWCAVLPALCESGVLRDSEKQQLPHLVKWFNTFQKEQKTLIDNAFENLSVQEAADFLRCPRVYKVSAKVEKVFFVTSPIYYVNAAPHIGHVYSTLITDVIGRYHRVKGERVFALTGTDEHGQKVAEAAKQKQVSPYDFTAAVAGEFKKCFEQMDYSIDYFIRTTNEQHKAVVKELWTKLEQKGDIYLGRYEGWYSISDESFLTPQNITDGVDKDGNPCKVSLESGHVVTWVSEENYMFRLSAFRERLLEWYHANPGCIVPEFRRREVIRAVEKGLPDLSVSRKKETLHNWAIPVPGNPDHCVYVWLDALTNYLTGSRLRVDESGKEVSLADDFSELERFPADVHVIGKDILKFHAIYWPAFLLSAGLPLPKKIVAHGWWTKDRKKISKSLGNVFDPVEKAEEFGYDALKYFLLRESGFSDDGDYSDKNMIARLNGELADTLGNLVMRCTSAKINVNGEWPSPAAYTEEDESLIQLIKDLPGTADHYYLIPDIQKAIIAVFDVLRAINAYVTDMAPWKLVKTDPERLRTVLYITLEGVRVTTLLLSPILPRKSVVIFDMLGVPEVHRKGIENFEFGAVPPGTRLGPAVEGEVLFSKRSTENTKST

[21] = target: Heat shock protein HSP 90-alpha (Homo sapiens, UniProt P07900); type: functional, organism-based
[22] = Counterscreen for inhibitors of Trypanosoma brucei methionyl tRNA synthetase (MetRS): Luminescence-based cell-based high throughput dose response assay to identify compounds that are cytotoxic to Jurkat human T lymphocyte cells.; type: functional
[23] = target: T3, Methionyl-tRNA synthetase, putative; type: functional, Trypanosoma brucei brucei strain 927/4 GUTat10.1; remark: listed apart in the source

Chain of Nuclear receptor subfamily 5 group A member 2 (O00482 whole entry): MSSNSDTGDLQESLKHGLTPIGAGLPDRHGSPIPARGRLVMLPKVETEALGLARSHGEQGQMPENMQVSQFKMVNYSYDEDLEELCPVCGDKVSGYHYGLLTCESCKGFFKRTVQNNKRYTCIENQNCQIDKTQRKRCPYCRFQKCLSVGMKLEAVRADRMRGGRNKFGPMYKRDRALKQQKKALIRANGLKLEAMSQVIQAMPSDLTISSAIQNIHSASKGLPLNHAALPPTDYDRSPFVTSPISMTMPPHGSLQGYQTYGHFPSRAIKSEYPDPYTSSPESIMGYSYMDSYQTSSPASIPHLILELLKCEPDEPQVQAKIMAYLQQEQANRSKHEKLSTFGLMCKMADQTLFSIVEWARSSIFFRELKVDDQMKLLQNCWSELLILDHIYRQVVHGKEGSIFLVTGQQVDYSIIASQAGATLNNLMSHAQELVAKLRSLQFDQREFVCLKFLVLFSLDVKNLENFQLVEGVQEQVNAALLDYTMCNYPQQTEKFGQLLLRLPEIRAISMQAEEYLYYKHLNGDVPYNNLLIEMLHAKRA

Compound: O=C(COC(=O)c1ccc(=O)n(Cc2ccccc2)n1)Nc1ccc2c(c1)OCCO2
- IC50 [1]: 35.9 µM (inactive)
- IC50 [2]: 35.9 µM (inactive)
- IC50 (Steroidogenic factor 1): 35.9 µM (inactive)

Compound: CC12CCC3C(CC=C4CC(O)CCC43C)C1C/C(=C\c1ccccc1F)C2=O (stereo not drawn)
- EC50 (Melanocortin receptor 4): > 89.2 µM (inactive)
- AC50 [3]: 2.76 µM (active)

Compound: Cc1ccc2sc(N(CCCN(C)C)C(=O)CN3C(=O)c4ccccc4C3=O)nc2c1C
- AC50 [4]: 13.8 µM (active)
- EC50 (Melanocortin receptor 4): > 89.2 µM (inactive)
- EC50 [5]: 0.225 µM (active)
- EC50 [6]: > 60 µM (not active)

Compound: COCc1nnc(NC(=O)c2ccc(S(=O)(=O)N(CC(C)C)CC(C)C)cc2)o1
- IC50 [7]: 8.81 µM (active)

Compound: C=CC[n+]1c(-c2ccc(Cl)cc2Cl)csc1Nc1ccc(NC(C)=O)cc1
- IC50 [7]: 2.75 µM (active)

Compound: C=CCN1C=C2C(=O)C(C)(OC(=O)CCC(=O)OC)C(=O)C=C2C=C1C1CC1 (stereo not drawn)
- IC50 [8]: 39.3 µM (active)

Compound: COc1ccc2c(c1)Cc1sc(NC(=O)c3ccco3)nc1-2
- IC50 [8]: 45.8 µM (active)

Compound: NS(=O)(=O)c1ccc(CCNc2nc3c(-c4cccc(F)c4)nnn3c3ccccc23)cc1
- EC50 [9]: > 120 µM (not active)
- EC50 [10]: > 120 µM (not active)
- IC50 [11]: 11.2 µM (inactive)
- EC50 [12]: > 120 µM (not active)

Compound: O=C(O)CSc1cccc2cccnc12
- AC50 [13]: 74.5 µM (active)

Compound: CN1CCN(c2nc(-c3ccccn3)nc3ccccc23)CC1
- AC50 [14]: 53.8 µM (active)

Compound: COc1cccc(NC(=O)COc2cccc3c2CCNC3=O)c1
- IC50 (H9c2): > 79 µM (inactive)
- AC50 (Vero): 37.2 µM (active)

Compound: C#CCN(C[C@@H]1[C@@H](OC(=O)NCc2ccccc2F)[C@@H](OC(=O)NCc2ccccc2F)Cn2c(=O)ccc(=O)n21)S(=O)(=O)c1ccc(C)cc1
- AC50 (Paired box protein Pax-8): 5.52 µM (active)
- IC50 [15]: 9.77 µM (active)
- AC50 (HEK293): 7.17 µM (active)
- AC50 [16]: 2.58 µM (active)
- IC50 [17]: 8.93 µM (active)

Compound: O=[N+]([O-])c1ccc(N/N=C/C=C/c2ccco2)cc1
- IC50 (CHO): > 49.8 µM (inactive)
- IC50 (Beta Lactamase): 4.19 µM (active)

Compound: O=C(NCc1ccccc1)C(c1ccccc1F)n1c(=O)c(-c2ccco2)nc2ccccc21 (stereo not drawn)
- IC50 [17]: 2.24 µM (active)

Compound: CC(C)NC(=O)Nc1ccc2c(c1)CC(=O)N([C@H](C)CO)C[C@@H](C)[C@@H](CN(C)Cc1ccc(Oc3ccccc3)cc1)O2
- AC50 [13]: 132 µM (active)

Compound: Cc1ccc(C)c(NC(=O)CN2C(=O)C3CC=CCC3C2=O)c1 (stereo not drawn)
- AC50 (Vero): 35.8 µM (active)

Compound: C[C@@H]1CN([C@H](C)CO)C(=O)Cc2cc(NS(=O)(=O)c3cccs3)ccc2O[C@@H]1CN(C)S(=O)(=O)c1ccc(Cl)cc1
- AC50 [18]: 4.11 µM (active)

Compound: Cc1ccc(S(=O)(=O)N(C)C[C@@H]2Oc3c(NC(=O)CCCCCC(=O)Nc4ccccc4N)cccc3C(=O)N([C@H](C)CO)C[C@@H]2C)cc1
- AC50 [18]: 6.27 µM (active)

Compound: CN(C)CCCNc1nc2cc(-c3ccccc3)sc2c(=O)n1C
- AC50 [4]: 10.8 µM (active)
- AC50 [14]: 40.3 µM (active)

Compound: COc1ccc(S(=O)(=O)N(C)C[C@@H]2Oc3cc(-c4cccc(F)c4)ccc3S(=O)(=O)N([C@@H](C)CO)C[C@H]2C)cc1
- AC50 [19]: 3.72 µM (active)

Compound: COc1ccc(NC(=O)CS(=O)(=O)c2ccc(C)cc2)c(OC)c1
- IC50 [1]: 12 µM (inactive)
- IC50 [2]: 35.9 µM (inactive)
- IC50 (Steroidogenic factor 1): 10 µM (inactive)

Compound: Clc1ccc(COC(Cn2ccnc2)c2ccc(Cl)cc2Cl)c(Cl)c1 (stereo not drawn) [MICONAZOLE]
- IC50 [20]: 11.7 µM (inactive)
- AC50 [21]: < 0.195 µM (active)
- IC50 [22]: 33 µM (inactive)
- IC50 [23]: 12.9 µM (inactive)

Source: ChEMBL document CHEMBL1201862, “PubChem BioAssay data set” (2004)
